Structures are written as SMILES.

From ChEMBL document CHEMBL3585316, “Discovery, bioactivity and docking simulation of Vorinostat analogues containing 1,2,4-oxadiazole moiety as potent histone deacetylase inhibitors and antitumor agents” (Bioorg Med Chem, 2015) come the findings set out here.

One assay has as its system NCI-H661. Description: Antiproliferative activity against human NCI-H661 cells incubated for 72 hrs by MTT assay. The class given is functional, cell-based. The note with it: NCI-H661, 72 h. For orientation: Tetrazolium dyes change colour on reduction, which living cells bring about.
In a further assay the target is Histone deacetylase 2 (Homo sapiens, UniProt Q92769). Description: Inhibition of recombinant HDAC2 (unknown origin) incubated for 10 mins using Boc-Lys(acetyl)-AMC fluorogenic substrate by homogeneous fluorescence release assay.
Sequence of Histone deacetylase 2 (Q92769 whole entry): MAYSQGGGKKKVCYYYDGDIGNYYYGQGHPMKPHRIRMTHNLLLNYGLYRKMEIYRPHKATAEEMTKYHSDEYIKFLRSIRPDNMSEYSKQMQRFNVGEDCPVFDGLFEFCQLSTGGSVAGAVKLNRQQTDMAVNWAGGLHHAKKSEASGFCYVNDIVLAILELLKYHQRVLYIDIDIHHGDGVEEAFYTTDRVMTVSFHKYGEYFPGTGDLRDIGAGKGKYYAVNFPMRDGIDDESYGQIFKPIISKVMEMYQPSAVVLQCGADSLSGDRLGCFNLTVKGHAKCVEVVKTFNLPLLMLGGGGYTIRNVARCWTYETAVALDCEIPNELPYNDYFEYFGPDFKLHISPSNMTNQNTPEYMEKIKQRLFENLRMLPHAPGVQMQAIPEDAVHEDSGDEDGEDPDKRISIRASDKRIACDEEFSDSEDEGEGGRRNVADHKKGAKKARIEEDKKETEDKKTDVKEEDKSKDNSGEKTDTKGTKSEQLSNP
Another assay has as its system U-937. Description: Antiproliferative activity against human U937 cells incubated for 72 hrs by MTT assay. Type of assay: functional, cell-based. To be noted: U-937, 72 h.
In another assay the test system is A549. Description: cells. To be noted: Homo sapiens, A549, 72 h.
For the next assay, the target named is T1, Histone deacetylase 8 (Homo sapiens, UniProt Q9BY41).
T1 sequence (Q9BY41 whole entry): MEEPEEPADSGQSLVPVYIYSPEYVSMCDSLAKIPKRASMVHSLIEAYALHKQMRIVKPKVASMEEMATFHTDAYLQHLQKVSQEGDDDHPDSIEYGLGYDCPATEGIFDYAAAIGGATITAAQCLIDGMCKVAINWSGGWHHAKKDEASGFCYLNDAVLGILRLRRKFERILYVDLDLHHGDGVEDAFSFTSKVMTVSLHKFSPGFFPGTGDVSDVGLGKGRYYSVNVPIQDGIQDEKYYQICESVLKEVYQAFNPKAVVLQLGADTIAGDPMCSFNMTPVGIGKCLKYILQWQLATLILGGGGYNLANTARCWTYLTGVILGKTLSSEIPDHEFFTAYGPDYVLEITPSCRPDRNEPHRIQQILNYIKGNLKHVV
Description: Inhibition of recombinant HDAC8 (unknown origin) incubated for 10 mins using Boc-Lys(acetyl)-AMC fluorogenic substrate by homogeneous fluorescence release assay.

The target of another assay is Histone deacetylase 1 (Homo sapiens, UniProt Q13547). Description: Inhibition of recombinant HDAC1 (unknown origin) incubated for 10 mins using Boc-Lys(acetyl)-AMC fluorogenic substrate by homogeneous fluorescence release assay.
Sequence of Histone deacetylase 1 (Q13547 whole entry): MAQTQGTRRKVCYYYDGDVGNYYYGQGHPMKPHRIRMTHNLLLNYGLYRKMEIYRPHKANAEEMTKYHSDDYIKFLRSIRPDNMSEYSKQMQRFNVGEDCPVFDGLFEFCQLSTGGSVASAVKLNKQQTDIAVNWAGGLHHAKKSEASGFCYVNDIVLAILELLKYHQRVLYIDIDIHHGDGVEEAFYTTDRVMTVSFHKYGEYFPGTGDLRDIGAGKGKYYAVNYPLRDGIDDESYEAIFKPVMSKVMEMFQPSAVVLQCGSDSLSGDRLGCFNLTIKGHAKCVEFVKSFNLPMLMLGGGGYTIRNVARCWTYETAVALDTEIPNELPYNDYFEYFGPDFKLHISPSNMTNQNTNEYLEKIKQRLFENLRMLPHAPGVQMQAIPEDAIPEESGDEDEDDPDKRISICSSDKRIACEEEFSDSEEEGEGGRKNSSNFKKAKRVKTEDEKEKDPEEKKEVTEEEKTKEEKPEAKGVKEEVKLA

Description for A549: Antiproliferative activity against human A549 cells incubated for 72 hrs by MTT assay

As a reminder, the IC50 is the concentration that inhibits the measured activity by half. For the molecule `COc1ccc(-c2noc(CCCCCCC(=O)C(F)(F)F)n2)cc1`, the half-inhibitory concentration (IC50) in the assay with NCI-H661 amounted to 5.05 µM; at Histone deacetylase 2 it was 4530 nM; in the assay with U-937, 1170 nM; with A549, 35.9 µM; on Histone deacetylase 8, 1.86 µM; at Histone deacetylase 1 it was 9630 nM.

Regarding `O=C(CCCCCCc1nc(-c2cccc([N+](=O)[O-])c2)no1)C(F)(F)F`, the half-maximal inhibitory concentration (IC50) in the assay on NCI-H661 amounted to 6.43 µM; at Histone deacetylase 2 it was 920 nM; in the assay with U-937, 560 nM; with A549, 9.58 µM; at Histone deacetylase 8 it was 0.83 µM; at Histone deacetylase 1, 3980 nM.

For the molecule `Nc1ccccc1NC(=O)CCCCCCc1nc(-c2ccc(F)cc2)no1`, the IC50 in the assay with NCI-H661 was 9.53 µM; at Histone deacetylase 2, 2570 nM; in the assay on U-937, 3080 nM; in the assay with A549, 31.2 µM; on Histone deacetylase 8, above 10 µM; on Histone deacetylase 1 it was 880 nM.

For the molecule `Nc1ccccc1NC(=O)CCCCCCc1nc(-c2ccc([N+](=O)[O-])cc2)no1`, the IC50 in the assay with NCI-H661 was above 100 µM; on Histone deacetylase 2 it was above 10000 nM; in the assay with U-937 it was 10200 nM; in the assay on A549, above 100 µM; at Histone deacetylase 8 it was above 10 µM; at Histone deacetylase 1 it was 8670 nM.

For `O=C(CCCCCCc1nc(-c2ccc(F)cc2)no1)C(F)(F)F`, the concentration for half-maximal inhibition (IC50) in the assay with NCI-H661 was 12.7 µM; at Histone deacetylase 2, above 10000 nM; in the assay on U-937, 2350 nM; in the assay with A549, above 100 µM; at Histone deacetylase 8 it was 7.65 µM; on Histone deacetylase 1, above 10000 nM.

Consider `O=C(CCCCCCc1nc(-c2ccccc2Cl)no1)NO`, for which the IC50 came out at 10.3 µM in the assay with NCI-H661; 1250 nM at Histone deacetylase 2; 750 nM with U-937; 8.87 µM in the assay with A549; 3.65 µM on Histone deacetylase 8; 190 nM at Histone deacetylase 1.

In the case of `Nc1ccccc1NC(=O)CCCCCCc1nc(-c2ccc(C(F)(F)F)cc2)no1`, the IC50 in the assay on NCI-H661 was 29.8 µM; at Histone deacetylase 2 it was above 10000 nM; with U-937, 5280 nM; in the assay on A549 it was above 100 µM; at Histone deacetylase 8, above 10 µM; on Histone deacetylase 1, 3040 nM.

As for `O=C(CCCCCCc1nc(-c2ccc(C(F)(F)F)cc2)no1)NO`, the IC50 with NCI-H661 is 15.3 µM; on Histone deacetylase 2, 7930 nM; in the assay on U-937, 2870 nM; with A549, 14 µM; on Histone deacetylase 8 it was above 10 µM; on Histone deacetylase 1, 1920 nM.

For the molecule `O=C(CCCCCCc1nc(-c2cccs2)no1)C(F)(F)F`, the 50% inhibitory concentration (IC50) was 7.53 µM in the assay on NCI-H661; 1630 nM at Histone deacetylase 2; 1280 nM with U-937; 11.7 µM in the assay on A549; 0.95 µM at Histone deacetylase 8; 5170 nM at Histone deacetylase 1.

On to `O=C(CCCCCCc1nc(-c2ccc(Cl)cc2)no1)C(F)(F)F`, for which the IC50 in the assay with NCI-H661 is 11.9 µM; at Histone deacetylase 2, 8560 nM; in the assay on U-937, 4670 nM; in the assay with A549, 18.5 µM; on Histone deacetylase 8, 2.08 µM; at Histone deacetylase 1, above 10000 nM.

For `O=C(CCCCCCc1nc(-c2ccc(C(F)(F)F)cc2)no1)C(F)(F)F`, the half-maximal inhibitory concentration (IC50) in the assay on NCI-H661 was determined as 6.39 µM; on Histone deacetylase 2, 2790 nM; in the assay with U-937, 1960 nM; with A549, 28.8 µM; on Histone deacetylase 8, 1.03 µM; on Histone deacetylase 1, 8250 nM.

For `COc1ccc(-c2noc(CCCCCCC(=O)Nc3ccccc3N)n2)cc1`, the IC50 with NCI-H661 is 7.99 µM; at Histone deacetylase 2 it was 3850 nM; with U-937, 2690 nM; in the assay on A549, 19.5 µM; on Histone deacetylase 8, above 10 µM; on Histone deacetylase 1, 910 nM.

As for `O=C(CCCCCCc1nc(-c2cccc([N+](=O)[O-])c2)no1)NO`, the IC50 in the assay on NCI-H661 was determined as 16.1 µM; on Histone deacetylase 2, 1560 nM; in the assay on U-937 it was 1160 nM; in the assay with A549, 10.8 µM; at Histone deacetylase 8, 2.38 µM; at Histone deacetylase 1, 350 nM.

Turning to `Nc1ccccc1NC(=O)CCCCCCc1nc(-c2cccs2)no1`, the IC50 with NCI-H661 was 6.18 µM; on Histone deacetylase 2 it was 2870 nM; in the assay on U-937, 1590 nM; with A549 it was 28.7 µM; at Histone deacetylase 8 it was above 10 µM; at Histone deacetylase 1 it was 760 nM.

Regarding `Cc1ccc(-c2noc(CCCCCCC(=O)NO)n2)cc1`, the half-maximal inhibitory concentration (IC50) is 15.8 µM in the assay on NCI-H661; 2780 nM at Histone deacetylase 2; 1360 nM in the assay with U-937; 5.81 µM in the assay with A549; 5.39 µM at Histone deacetylase 8; 490 nM on Histone deacetylase 1.

Take `O=C(CCCCCCc1nc(-c2ccccc2Cl)no1)C(F)(F)F`: the IC50 was 1.25 µM with NCI-H661; 1580 nM at Histone deacetylase 2; 920 nM in the assay on U-937; 6.16 µM in the assay on A549; 0.71 µM at Histone deacetylase 8; 7650 nM at Histone deacetylase 1.

`O=C(CCCCCCc1nc(-c2ccccc2)no1)NO`: the IC50 in the assay with NCI-H661 turned out to be 17.3 µM; at Histone deacetylase 2 it was 1170 nM; in the assay with U-937 it was 1250 nM; in the assay on A549, 7.08 µM; on Histone deacetylase 8 it was 2.05 µM; on Histone deacetylase 1, 380 nM.

For the molecule `Cc1ccc(-c2noc(CCCCCCC(=O)Nc3ccccc3N)n2)cc1`, the half-inhibitory concentration (IC50) amounted to 0.41 µM in the assay with NCI-H661; 680 nM on Histone deacetylase 2; 460 nM with U-937; 9.17 µM in the assay with A549; 8.39 µM on Histone deacetylase 8; 140 nM on Histone deacetylase 1.

Consider `Nc1ccccc1NC(=O)CCCCCCc1nc(-c2cccnc2)no1`, for which the concentration for half-maximal inhibition (IC50) was 15.4 µM in the assay on NCI-H661; 3160 nM at Histone deacetylase 2; 2070 nM in the assay on U-937; above 100 µM in the assay with A549; above 10 µM on Histone deacetylase 8; 1050 nM on Histone deacetylase 1.

Consider `Nc1ccccc1NC(=O)CCCCCCc1nc(-c2ccc(Cl)cc2)no1`, for which the IC50 is 11.2 µM in the assay with NCI-H661; 6290 nM at Histone deacetylase 2; 4360 nM with U-937; 13.8 µM in the assay on A549; above 10 µM on Histone deacetylase 8; 1560 nM at Histone deacetylase 1.

In the case of `COc1ccc(-c2noc(CCCCCCC(=O)NO)n2)cc1`, the IC50 in the assay with NCI-H661 is 20.4 µM; on Histone deacetylase 2 it was above 10000 nM; in the assay with U-937 it was 3650 nM; with A549, 13.5 µM; on Histone deacetylase 8, above 10 µM; on Histone deacetylase 1 it was 2180 nM.

In the case of `O=C(CCCCCCc1nc(-c2ccccc2)no1)C(F)(F)F`, the half-inhibitory concentration (IC50) was determined as 0.52 µM in the assay with NCI-H661; 1050 nM on Histone deacetylase 2; 410 nM with U-937; 7.68 µM with A549; 0.76 µM on Histone deacetylase 8; 5320 nM at Histone deacetylase 1.

In the case of `Nc1ccccc1NC(=O)CCCCCCc1nc(-c2ccccc2)no1`, the IC50 with NCI-H661 is 0.96 µM; at Histone deacetylase 2 it was 730 nM; with U-937, 730 nM; in the assay on A549, 23.9 µM; on Histone deacetylase 8 it was above 10 µM; at Histone deacetylase 1, 210 nM.

`Cc1ccc(-c2noc(CCCCCCC(=O)C(F)(F)F)n2)cc1`: the half-inhibitory concentration (IC50) was 18.7 µM in the assay on NCI-H661; 7320 nM at Histone deacetylase 2; 3730 nM in the assay with U-937; above 100 µM in the assay on A549; 3.19 µM on Histone deacetylase 8; above 10000 nM at Histone deacetylase 1.

Regarding `O=C(CCCCCCc1nc(-c2ccc(Cl)cc2)no1)NO`, the half-maximal inhibitory concentration (IC50) is 17.3 µM with NCI-H661; 5190 nM on Histone deacetylase 2; 980 nM with U-937; 11.9 µM with A549; above 10 µM at Histone deacetylase 8; 680 nM at Histone deacetylase 1.

As to `Nc1ccccc1NC(=O)c1ccc(CNC(=O)OCc2cccnc2)cc1` [ENTINOSTAT], in the assay with U-937, inhibition was half-maximal at 550 nM (IC50).
